Entries after “also recorded” stand apart in the source; their conditions may differ.
Key:
Type in all cases: cell-based, mouse
Conditions in all cases: GFB204 10 μM
[1] = test system: VEGF-stimulated Erk1, Erk2, Akt and STAT3 phosphorylation; experiment: VEGF-stimulated phosphorylation of Erk1/2, Akt and STAT3 in Flk-1/NIH 3T3 cells
Description: (§1) FIGS. 3A and 3B show the effect of GFB204 on growth factor stimulated Erk1, Erk2, Akt, and STAT3 phosphorylation. GFB204 inhibits VEGF and PDGF stimulation of Flk-1 tyrosine phosphorylation and Erk1/Erk2 phosphorylation (FIG. 3A). NIH 3T3 cells or Flk-1/NIH 3T3 cells were treated with increasing concentrations of GFB204 for 5 minutes prior to stimulation with PDGFBB (10 ng/ml) or VEGF (50 ng/ml), respectively, for 10 minutes. The cells were then lysed and processed for SDS-PAGE Western blotting with an antibody specific for phosphotyrosine-Flk-1 or anti-phosphotyrosine for PDGFR tyrosine phosphorylation or phospho-Erk1/2. GFB204 effects on growth factor-stimulated Erk1, Erk2, Akt and STAT3 phosphorylation (FIG. 3B). NIH 3T3, Flk-1/NIH 3T3, IGF-1R/NIH 3T3 or EGFR/NIH 3T3 cells were treated with GFB204 (10 μM) prior to stimulation with PDGF (NIH 3T3) VEGF (Flk-1/NIH 3T3), EGF (EGFR/NIH 3T3), bFGF (NIH 3T3) or IGF-1 (IGF-1R/NIH 3T3). The cells were then harvested and processed for SDS-PAGE Western blotting with antibodies specific for phospho-Erk1/2, phospho-Akt and phospho-STAT3.
(§2) Growth factor-mediated stimulation of phosphorylation of Erk1/2, Akt and STAT3. […]

[2] = test system: EGF-stimulated Erk1, Erk2, Akt and STAT3 phosphorylation; experiment: EGF-stimulated phosphorylation of Erk1/2, Akt and STAT3 in EGFR/NIH 3T3 cells
Description: as §1, §2

[3] = test system: PDGF-stimulated Erk1, Erk2, Akt and STAT3 phosphorylation; experiment: PDGF-stimulated phosphorylation of Erk1/2, Akt and STAT3 in NIH 3T3 cells
Description: as §1, §2

## CCCCOc1c2cc(C(=O)Nc3cc(C(=O)O)cc(C(=O)OCc4ccccc4)c3)cc1Cc1cc(C(=O)Nc3cc(C(=O)O)cc(C(=O)OCc4ccccc4)c3)cc(c1OCCCC)Cc1cc(C(=O)Nc3cc(C(=O)O)cc(C(=O)OCc4ccccc4)c3)cc(c1OCCCC)Cc1cc(C(=O)Nc3cc(C(=O)O)cc(C(=O)OCc4ccccc4)c3)cc(c1OCCCC)C2 [GFB204]
[1]
  VEGF-stimulation of the phosphorylation of Erk1, Erk2, Akt and STAT3: blocked; also recorded: inhibited
[2]
  EGF-stimulation of the phosphorylation of Erk1, Erk2, Akt and STAT3: had little effect and not
[3]
  PDGF-stimulation of the phosphorylation of Erk1, Erk2, Akt and STAT3: blocked; also recorded: inhibited
